The values below come from article PMC6882824, “Engineering of chimeric peptides as antagonists for the G protein-coupled receptor, RXFP4” (Scientific Reports, 2019).

By Emax is commonly meant the size of the effect at its maximum, as opposed to the concentration needed. What is called Ki is a measure of affinity in units of concentration, obtained from inhibition or displacement.

SMILES strings stand for the structures. Where two headings read alike, the source gives them in different places. Bridge positions count the residues as written; N and C are the ends. Peptide text beside a SMILES is read from it. I, II: the chains in the order shown.

Assay [1] deals with T1, RXFP4 (Homo sapiens, UniProt Q8TDU9). Kind of assay: cAMP antagonist assay against 16.6 nM analogue 13 in CHO-K1-RXFP4 cells. Format: cell-based. Further details: expressed in transfected cells; host or cells: CHO-K1 (ATCC), stably transfected. As to conditions: for Emax: SEM, read-out: RXFP4 Emax (antagonist efficacy). The protocol: (§1) The peptides were tested for their ability to inhibit forskolin induced cAMP activity in CHO-K1-RXFP3 or CHO-K1-RXFP4 cells transfected with a pCRE (cAMP Response Element) β-galactosidase reporter plasmid as previously described[9],[34]. For agonist assays cells were stimulated with forskolin (5 µM for RXFP3, 1 µM for RXFP4) plus or minus increasing concentrations of each peptide for 6 hours. For antagonist assays cells were stimulated with forskolin as in agonist assays plus increasing concentrations of each peptide for 10 minutes followed by stimulation with agonist at an ~EC80 concentration for a further 6 hours (10 nM Analogue 2 for RXFP3 and 16.6 nM Analogue 13 for RXFP4). Each peptide was tested in triplicate and each experiment was performed independently at least three times. Agonist data was expressed as the % Forskolin activity whereby 100% was defined as Forskolin alone and 0% as maximum agonist stimulation (1 µM Analogue 2 for RXFP3 and 1 µM Analogue 13 for RXFP4). […] Data were analysed and plotted using GraphPad PRISM 8 and are expressed as the mean ± SEM of the pooled data. Statistical analysis was conducted using one-way ANOVA with Uncorrected Fisher’s LSD post-hoc analysis in GraphPad Prism version 8.
T1 sequence (Q8TDU9 whole entry): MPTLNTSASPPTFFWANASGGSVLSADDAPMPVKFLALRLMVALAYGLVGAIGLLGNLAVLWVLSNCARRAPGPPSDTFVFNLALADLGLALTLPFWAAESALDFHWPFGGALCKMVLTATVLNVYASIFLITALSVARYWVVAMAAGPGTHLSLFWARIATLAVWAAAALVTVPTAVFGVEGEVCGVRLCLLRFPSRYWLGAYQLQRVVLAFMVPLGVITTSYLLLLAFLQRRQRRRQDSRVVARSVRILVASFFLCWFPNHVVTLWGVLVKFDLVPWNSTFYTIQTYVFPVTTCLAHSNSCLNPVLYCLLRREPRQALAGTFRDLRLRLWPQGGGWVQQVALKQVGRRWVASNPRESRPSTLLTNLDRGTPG

The target in assay [2] is T1, RXFP4. Kind of assay: Competition binding in CHO-K1-RXFP4 cells (Eu-DTPA-mINSL5). More on the design: expressed in transfected cells; host or cells: CHO-K1 (ATCC), stably transfected. How it is done: (§2) Chinese hamster ovary CHO-K1 cells (sourced from American Type Culture Collection (ATCC), Maryland, USA) stably transfected with RXFP3[33] or RXFP4[9] were plated out onto precoated poly-L-lysine 96-well view plates at a density of 50 000 cells per well. Medium was aspirated off and the cells were washed with phosphate-buffered saline (PBS) before competition binding assays were performed with 5 nM Eu-H3B1–22R[34] (RXFP3 ligand) or 5 nM Eu-DTPA-mINSL5[9] (RXFP4 ligand) as previously described. Competition binding curves were performed in triplicate and each experiment was performed independently at least three times. Fluorescent measurements were carried out on a BMG POLARstar plate reader (BMG Labtech, Melbourne, Australia. Pooled data are presented as mean ± S.E of specific binding and are fitted using one-site binding curve in GraphPad Prism version 8 (GraphPad Inc., San Diego, USA). Statistical analyses were conducted using one-way analysis of variance with uncorrected Fisher’s least significant difference (LSD) post-hoc analysis in GraphPad Prism version 8.

Assay [3] concerns the target T1, RXFP4. As to the kind of experiment: cAMP agonist assay (inhibition of forskolin-induced cAMP, pCRE β-galactosidase reporter) in CHO-K1-RXFP4 cells. It is filed as cell-based. Further details: expressed in transfected cells; host or cells: CHO-K1 (ATCC), stably transfected. To be noted: CHO-K1-RXFP4 cells, inhibition of 1 µM forskolin-induced cAMP, 6 hours; mean ± SEM, n in cell. How it is done: as §1

The target of assay [4] is T2, RXFP3 (Homo sapiens, UniProt Q9NSD7).
T2 construct: expressed in transfected cells; host or cells: CHO-K1 (ATCC), stably transfected
T2 sequence (Q9NSD7 1-469): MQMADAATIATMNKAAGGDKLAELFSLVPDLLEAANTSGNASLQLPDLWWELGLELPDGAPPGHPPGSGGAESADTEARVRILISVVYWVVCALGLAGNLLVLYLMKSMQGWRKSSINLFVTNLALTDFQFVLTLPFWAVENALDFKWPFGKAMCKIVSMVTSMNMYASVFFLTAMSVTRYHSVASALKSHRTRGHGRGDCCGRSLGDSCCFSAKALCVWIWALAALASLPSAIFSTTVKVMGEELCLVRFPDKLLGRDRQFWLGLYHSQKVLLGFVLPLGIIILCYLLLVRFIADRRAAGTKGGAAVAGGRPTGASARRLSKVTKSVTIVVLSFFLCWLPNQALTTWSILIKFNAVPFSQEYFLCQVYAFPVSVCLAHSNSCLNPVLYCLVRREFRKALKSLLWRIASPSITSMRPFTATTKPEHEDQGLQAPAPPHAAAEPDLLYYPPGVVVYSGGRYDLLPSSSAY
Kind of assay: cAMP agonist assay (inhibition of forskolin-induced cAMP, pCRE β-galactosidase reporter) in CHO-K1-RXFP3 cells. It is filed as cell-based. As to conditions: CHO-K1-RXFP3 cells, inhibition of 5 µM forskolin-induced cAMP, 6 hours; mean ± SEM, n in cell. The protocol: as §1

In assay [5] the target is T2, RXFP3. As to the kind of experiment: cAMP antagonist assay against 10 nM analogue 2 in CHO-K1-RXFP3 cells. It is filed as cell-based. As to conditions: for Emax: SEM, read-out: RXFP3 Emax (antagonist efficacy). The protocol: as §1
In assay [6] the target is T2, RXFP3. Kind of assay: Competition binding in CHO-K1-RXFP3 cells (Eu-H3B1-22R). How it is done: as §2
The mark [7] stands for this setting: CHO-K1-RXFP4 cells, block of 16.6 nM analogue 13, read-out: RXFP4 Antagonist potency IC50.
The mark [8] stands for this setting: CHO-K1 cells stably transfected with RXFP4, competition with 5 nM Eu-DTPA-mINSL5, read-out: RXFP4 Binding Ki.
[9] abbreviates: CHO-K1-RXFP3 cells, peptide 10 minutes, then 10 nM analogue 2 for 6 hours, 5 µM forskolin, mean ± SEM, read-out: RXFP3 Antagonist potency pIC50 (converted).
Setting [10] is: CHO-K1 cells stably transfected with RXFP3, competition with 5 nM Eu-H3B1-22R, read-out: RXFP3 Binding Ki.

As for `CC[C@H](C)[C@@H]1NC(=O)[C@H](Cc2ccccc2)NC(=O)[C@H](CCC(=O)O)NC(=O)[C@H](CCCNC(=N)N)NC(=O)CNC(=O)[C@@H](NC(=O)[C@H](CC(C)C)NC(=O)[C@H](CCCNC(=N)N)NC(=O)[C@@H](NC(=O)CNC(=O)[C@H](Cc2ccc(O)cc2)NC(=O)[C@@H]2CCCN2C(=O)[C@H](C)NC(=O)[C@H](C)NC(=O)[C@@H](N)CCCNC(=N)N)C(C)C)CSSC[C@H](N)C(=O)N[C@@H]([C@@H](C)O)C(=O)N[C@@H](CC(=O)O)C(=O)NCC(=O)N[C@@H](C)C(=O)N[C@@H](CO)C(=O)N[C@@H](CCSC)C(=O)N[C@@H](CCCCN)C(=O)N[C@@H](CC(=O)O)C(=O)N[C@@H](CC(C)C)C(=O)N[C@@H](CO)C(=O)N[C@@H](C)C(=O)N[C@@H](CC(C)C)C(=O)N[C@H](C(=O)O)CSSC[C@@H](C(=O)N[C@@H](CCCNC(=N)N)C(=O)O)NC(=O)[C@H]([C@@H](C)O)NC(=O)[C@H](Cc2ccccc2)NC(=O)[C@H]([C@@H](C)CC)NC(=O)[C@H](C(C)C)NC(=O)[C@H]([C@@H](C)O)NC(=O)[C@H](CCCNC(=N)N)NC1=O` [Analogue 17] (I: H-RAAPYGVRLCGREFIRTVIFTCR-OH / II: H-CTDGASMKDLSALC-OH; disulfide I:10-II:1, I:22-II:14), the IC50 against RXFP4 [1] was 34.7 nM; against RXFP3 [5], over 10000 nM. Also, the Emax turned out to be 36 ± 10% on RXFP4 [1] and 34.8 ± 0.9% on RXFP3 [5]. The values for the inhibition constant Ki on RXFP4 [2] and at RXFP3 [6] were 40.7 nM and 19.1 nM, respectively. Also, the “RXFP4 Activity pEC50” value on RXFP4 [3] is given as “Weak partial agonist (4)”. In addition, at RXFP3 [4], the “RXFP3 Activity pEC50” value is “No activity (3)”.
`CC[C@H](C)[C@@H]1NC(=O)[C@H](Cc2ccccc2)NC(=O)[C@H](CCC(=O)O)NC(=O)[C@H](CC(C)C)NC(=O)CNC(=O)[C@@H](NC(=O)[C@H](CC(C)C)NC(=O)[C@H](CCCNC(=N)N)NC(=O)[C@@H](NC(=O)CNC(=O)[C@H](Cc2ccc(O)cc2)NC(=O)[C@@H]2CCCN2C(=O)[C@H](C)NC(=O)[C@H](C)NC(=O)[C@@H](N)CCCNC(=N)N)C(C)C)CSSC[C@H](N)C(=O)N[C@@H]([C@@H](C)O)C(=O)N[C@@H](CC(=O)O)C(=O)NCC(=O)N[C@@H](C)C(=O)N[C@@H](CO)C(=O)N[C@@H](CCSC)C(=O)N[C@@H](CCCCN)C(=O)N[C@@H](CC(=O)O)C(=O)N[C@@H](CC(C)C)C(=O)N[C@@H](CO)C(=O)N[C@@H](C)C(=O)N[C@@H](CC(C)C)C(=O)N[C@H](C(=O)O)CSSC[C@@H](C(=O)N[C@@H](CCCNC(=N)N)C(=O)O)NC(=O)[C@H]([C@@H](C)O)NC(=O)[C@H](Cc2ccccc2)NC(=O)[C@H]([C@@H](C)CC)NC(=O)[C@H](C(C)C)NC(=O)[C@H](C)NC(=O)[C@H](CCCNC(=N)N)NC1=O` [Analogue 18] (I: H-RAAPYGVRLCGLEFIRAVIFTCR-OH / II: H-CTDGASMKDLSALC-OH; disulfide I:10-II:1, I:22-II:14): the IC50 was 214 nM at RXFP4 [1] (setting [7]) and over 10000 nM at RXFP3 [5] (setting [9]). Also, the maximal effect (Emax) on RXFP4 [1] was 56.2 ± 11.8%; at RXFP3 [5], 47 ± 7.3%. Further, the Ki on RXFP4 [2] (setting [8]) is 14.8 nM; at RXFP3 [6] (setting [10]) it was 25.7 nM. The “RXFP4 Activity pEC50” value at RXFP4 [3] is reported as “Weak partial agonist (3)”. The “RXFP3 Activity pEC50” value on RXFP3 [4] is “No activity (3)”.
For the compound `CC[C@H](C)[C@@H]1NC(=O)[C@H](Cc2ccccc2)NC(=O)[C@H](CCC(=O)O)NC(=O)[C@H](CCCNC(=N)N)NC(=O)CNC(=O)[C@@H](NC(=O)[C@H](CC(C)C)NC(=O)[C@H](CCCNC(=N)N)NC(=O)[C@@H](NC(=O)CNC(=O)[C@H](Cc2ccc(O)cc2)NC(=O)[C@H](CCCCN)NC(=O)[C@H](C)NC(=O)[C@H](C)NC(=O)[C@@H](N)CCCNC(=N)N)C(C)C)CSSC[C@H](N)C(=O)N[C@@H]([C@@H](C)O)C(=O)N[C@@H](CC(=O)O)C(=O)NCC(=O)N[C@@H](C)C(=O)N[C@@H](CO)C(=O)N[C@@H](CCSC)C(=O)N[C@@H](CCCCN)C(=O)N[C@@H](CC(=O)O)C(=O)N[C@@H](CC(C)C)C(=O)N[C@@H](CO)C(=O)N[C@@H](C)C(=O)N[C@@H](CC(C)C)C(=O)N[C@H](C(=O)O)CSSC[C@@H](C(=O)N[C@@H](CCCNC(=N)N)C(=O)O)NC(=O)[C@H]([C@@H](C)O)NC(=O)[C@H](Cc2ccccc2)NC(=O)[C@H]([C@@H](C)CC)NC(=O)[C@H](C(C)C)NC(=O)[C@H](C)NC(=O)[C@H](CCCNC(=N)N)NC1=O` [Analogue 19] (I: H-RAAKYGVRLCGREFIRAVIFTCR-OH / II: H-CTDGASMKDLSALC-OH; disulfide I:10-II:1, I:22-II:14; N-terminus assumed), the results for the IC50 on RXFP4 [1] (setting [7]) and on RXFP3 [5] (setting [9]) were 79.4 nM and over 10000 nM, respectively. Besides, the Emax at RXFP4 [1] turned out to be 71.3 ± 4.8%; at RXFP3 [5], 76.3 ± 1.8%. The Ki amounted to 10.2 nM on RXFP4 [2] (setting [8]) and 7.94 nM at RXFP3 [6] (setting [10]). At RXFP4 [3], the “RXFP4 Activity pEC50” value is “Weak partial agonist (4)”. Also, at RXFP3 [4], the “RXFP3 Activity pEC50” value is on record as “No activity (3)”.
